# Results from patent US20020002198A1, “Chemical synergy to elevate growth hormone release in vertebrates” (priority 2000, published 2002).
# Assays:
# GH release [1] = settings: cited from earlier work
# [2] = in vivo; cited from earlier work
# GH release [3] = assay: Serum GH at 1.5 hours post night time sleep after oral ingestion, antibody capture technique, healthy volunteer; format: in vivo, human; settings: for Augmentation of GH release at 1.5 hours post sleep (in words): oral at night sleep
# Protocol: Measurements of GH release occurring at 1.5 hours post sleep were performed on serum samples from a healthy volunteer. Controls and serum analysis for GH were measured by standard commercially avialable antibody capture technique. Experiments and measurement of results occurred between June and October 2000. Each single night experimental serum collection was separated from any other experiments by 1 week. All determinations represent averaged value of triple determinations. […] Measurements were each performed on serum collected 1.5 hours post night time sleep. Choice of 1.5 hours post sleep represents one complete sleep cycle with slow wave sleep during which GH is released. Oral ingestions of stated substances occurred just before night sleep. The normal range of serum GH at 1.5 hours post sleep is in the 1-10 nanograms per milliliter (ng/ml) range. The variance in measurement precision is given by the second value. All experiments were preceded by a period of 3-4 hours since the last meal.
# [4] = cited from earlier work
# [5] = oral ingestion, humans; cited from earlier work
# [6] = tested on: mitochondrial maximal energy production; settings: pharmacological levels, intravenous, aged animals, within an hour or two; cited from earlier work
smiles,measurement,setting,value
N=C(N)NCCC[C@H](N)C(=O)O [l-arginine],Lowest oral dose that augmented normal night time GH release,GH release [1],greater than 3 grams
same,Elevation of growth hormone secretion (in words),"GH release [1]; oral, alone, doses of up to 6 gram at night",does not elevate growth hormone secretion
NCCCNCCCCNCCCN [spermine],Toxicity when administered systematically (in words),[2],significant toxicity
NCCCCNCCCN [spermidine],Toxicity when administered systematically (in words),[2],considerably less toxic
"CC(=O)O[C@H](CC(=O)[O-])C[N+](C)(C)C [Acetyl-l-carnitine, acetyl-l-carnitine]",Measured GH,"GH release [3]; 500 mg of the single substance alone, oral at sleep, 1.5 hour post sleep serum collection, 3-4 hours after last meal, control […] ± 0.2",0.55 ± 0.1 ng/mL
same,Augmentation of GH release at 1.5 hours post sleep (in words),GH release [3],absence of effect
same,Safety in long human testing (in words),"[4]; 2.5-7 grams per day, Alzheimer's disease treatment",without reported negative consequences
same,Toxicity sets in at,[4]; comparable to normal nutritional amino acids,about 1 % of body weight
same,Maximal immediately absorbed dose,[5],500 to 2000 milligrams
same,Restoration of mitochondrial maximal energy production (in words),[6],restore mitochondrial maximal energy production to youthful levels
NCCC[C@H](N)C(=O)O [l-ornithine],Augmentation of GH release at 1.5 hours post sleep (in words),GH release [3],absence of effect
NCCCCN [putrescine],Toxicity when administered systematically (in words),[2],considerably less toxic
